Our source for the GI50 and TGI values is PubChem BioAssay (NCI).

Molecules are shown by their SMILES.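 Five compound concentrations were applied to cells in 96-well plates for 48 hours; endpoints were derived by simple linear interpolation of the resulting dose-response curve. At the GI50, growth is halved. TGI denotes the concentration required for complete inhibition of growth.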

Some test systems named below: 786-0 renal; A498 renal; A549 NSCLC; HCT-116 colon; M14 melanoma; MDA-MB-231 breast; OVCAR-3 ovarian; SN12C renal; T-47D breast; UO-31 renal.
Common to all, as to experiment: NCI tumour cell line growth inhibition, 48 h

On to `O=C1CCC2(C=C(Br)C(=O)C(Br)=C2)O1`, for which the GI50 was 17 µM with 786-0 renal; 16.6 µM in the experiment on A498 renal; 24.5 µM in the experiment with A549 NSCLC; 1.69 µM with HCT-116 colon; 11.8 µM with M14 melanoma; 15.4 µM in the experiment with MDA-MB-231 breast. Further, the GI50 with OVCAR-3 ovarian was 1.65 µM; in the experiment with SN12C renal, 16.3 µM; with T-47D breast it was 2.22 µM; in the experiment on UO-31 renal, 5.54 µM. Besides, the TGI in the experiment on 786-0 renal came to 30.8 µM; in the experiment on A498 renal it was 30.3 µM; in the experiment on A549 NSCLC, 67.3 µM; in the experiment with HCT-116 colon it was 3.12 µM; in the experiment with M14 melanoma, 24.7 µM; in the experiment with MDA-MB-231 breast it was 33.6 µM. Moreover, the TGI with OVCAR-3 ovarian was determined as 3.02 µM; in the experiment with SN12C renal, 35.3 µM; with T-47D breast, 5.04 µM; in the experiment on UO-31 renal it was 11.4 µM.

Consider `C[C@H]1CCC/C=C/[C@@H]2C[C@H](O)C[C@H]2[C@H](O)[C@@H](S(=O)CCN(C)C)CC(=O)O1` (some centres undefined), for which the GI50 with 786-0 renal is 0.0416 µM; in the experiment on A498 renal, 0.116 µM; in the experiment on A549 NSCLC it was 0.178 µM; in the experiment on HCT-116 colon, 0.279 µM; with M14 melanoma, 0.111 µM; in the experiment with MDA-MB-231 breast, 0.114 µM. Moreover, the GI50 in the experiment with OVCAR-3 ovarian is 0.115 µM; in the experiment with SN12C renal, 0.256 µM; in the experiment on T-47D breast, 0.338 µM; in the experiment with UO-31 renal it was 0.184 µM. Further, the TGI with A549 NSCLC is above 100 µM; with HCT-116 colon, 1.19 µM; in the experiment on M14 melanoma, above 59.3 µM; in the experiment with MDA-MB-231 breast, 0.458 µM; with UO-31 renal, above 100 µM.

`O=C1C=Cc2ccccc2/C1=C/c1[nH]c(=O)[nH]c1O`: the GI50 was 5.41 µM in the experiment with 786-0 renal; 2.87 µM with A498 renal; 19.8 µM in the experiment with A549 NSCLC; 4.12 µM in the experiment with HCT-116 colon; 4.42 µM in the experiment with M14 melanoma; 13.2 µM in the experiment with MDA-MB-231 breast. Besides, the GI50 was 2.51 µM with OVCAR-3 ovarian, 10.1 µM with SN12C renal, 2.5 µM with T-47D breast and 1.78 µM with UO-31 renal. In addition, the TGI in the experiment on 786-0 renal was 29.5 µM; in the experiment with A498 renal, 10.6 µM; with A549 NSCLC, 61.6 µM; in the experiment on HCT-116 colon it was 18.3 µM; in the experiment on M14 melanoma it was above 100 µM; with MDA-MB-231 breast it was 84.3 µM. The TGI with OVCAR-3 ovarian is 7.73 µM; in the experiment on SN12C renal it was above 100 µM; in the experiment on T-47D breast it was 25.6 µM; in the experiment on UO-31 renal it was 28.5 µM.

Consider `O=C(C(Br)Br)C(Br)C(Br)c1ccccc1` (centres undefined), for which the GI50 is 3.47 µM in the experiment on 786-0 renal; 19.7 µM in the experiment with A498 renal; 20.4 µM in the experiment with A549 NSCLC; 1.83 µM in the experiment with HCT-116 colon; 2.5 µM in the experiment on M14 melanoma; 5.4 µM with MDA-MB-231 breast. Further, the GI50 in the experiment with OVCAR-3 ovarian was 2.72 µM; in the experiment on SN12C renal, 12.7 µM; with T-47D breast it was 2.75 µM; with UO-31 renal it was 2.5 µM. Besides, the TGI in the experiment with 786-0 renal is 11 µM; in the experiment with A498 renal, 35 µM; in the experiment with A549 NSCLC it was 52.4 µM; with HCT-116 colon it was 3.42 µM; in the experiment with M14 melanoma, 6.33 µM; in the experiment on MDA-MB-231 breast, 20.6 µM. For the same compound, the TGI in the experiment with OVCAR-3 ovarian worked out at 6.44 µM; in the experiment on SN12C renal it was 33.2 µM; in the experiment on T-47D breast, 9.69 µM; in the experiment on UO-31 renal, 7.86 µM.

As for `O=C1c2ccccc2-c2c1c1ccccc1c(=O)n2CCNCCNCCn1c2c(c3ccccc3c1=O)C(=O)c1ccccc1-2`, the GI50 with 786-0 renal was 0.0267 µM; in the experiment with A498 renal, 14.4 µM; in the experiment on A549 NSCLC, 0.231 µM; in the experiment on HCT-116 colon, 0.0159 µM; with M14 melanoma, 2.58 µM; in the experiment on MDA-MB-231 breast it was 0.432 µM. The GI50 is 1.02 µM in the experiment on OVCAR-3 ovarian, 0.13 µM in the experiment on SN12C renal, 18.1 µM with T-47D breast and 0.519 µM with UO-31 renal. In addition, the TGI in the experiment on 786-0 renal is 2.37 µM; in the experiment on A498 renal, 29.9 µM; in the experiment with A549 NSCLC it was above 38.2 µM; with HCT-116 colon, 1.42 µM; in the experiment on M14 melanoma, 33.4 µM; with MDA-MB-231 breast it was 5.72 µM. Besides, the TGI in the experiment on OVCAR-3 ovarian was 8.98 µM; in the experiment on SN12C renal it was 14.1 µM; with T-47D breast, 41.5 µM.

With `C=C(CN1CCc2ccccc2C1)c1ccc(C(=O)Nc2ccc(N)cc2)cc1`, the GI50 in the experiment with 786-0 renal was 22.9 µM; in the experiment on A498 renal, 21.4 µM; in the experiment on A549 NSCLC, 18.7 µM; in the experiment on HCT-116 colon, 11.9 µM; in the experiment with M14 melanoma, 11.8 µM; in the experiment with MDA-MB-231 breast, 20.5 µM. Also, the GI50 in the experiment on OVCAR-3 ovarian is 12.7 µM; with SN12C renal it was 30.1 µM; in the experiment on T-47D breast, 11.1 µM; in the experiment on UO-31 renal it was 3.93 µM. Also, the TGI is above 100 µM in the experiment with 786-0 renal; above 100 µM with A498 renal; 52.5 µM with A549 NSCLC; above 100 µM in the experiment on HCT-116 colon; 65.6 µM in the experiment on M14 melanoma; above 100 µM with MDA-MB-231 breast. Besides, the TGI in the experiment on OVCAR-3 ovarian is 48 µM; in the experiment on SN12C renal, above 100 µM; in the experiment on T-47D breast it was 41.7 µM; in the experiment with UO-31 renal it was 30.5 µM.

On to `COC(=O)/C(=C\c1c(C)[nH]c2ccccc12)S(=O)(=O)c1ccccc1`, for which the GI50 in the experiment on 786-0 renal is 8.23 µM; with A498 renal it was 5.45 µM; with A549 NSCLC, 4.87 µM; with HCT-116 colon it was 3.8 µM; in the experiment on M14 melanoma it was 4.4 µM; in the experiment with MDA-MB-231 breast, 2.74 µM. The GI50 was 2.7 µM in the experiment with OVCAR-3 ovarian, 2.55 µM in the experiment on SN12C renal, 3.21 µM in the experiment with T-47D breast and 4.39 µM in the experiment on UO-31 renal. In addition, the TGI stood at 24.1 µM with 786-0 renal; 20.9 µM in the experiment on A498 renal; 64 µM in the experiment on A549 NSCLC; 17.3 µM in the experiment with HCT-116 colon; 20 µM in the experiment on M14 melanoma; 14.5 µM with MDA-MB-231 breast. Moreover, the TGI in the experiment with OVCAR-3 ovarian amounted to 7.56 µM; in the experiment with SN12C renal it was 10.3 µM; in the experiment with T-47D breast, 16.6 µM; with UO-31 renal, 18.4 µM.

As for `O=C(NC(=S)Nc1ccc(Cl)cc1)c1ccccc1`, the GI50 with 786-0 renal is above 87.4 µM; in the experiment on A498 renal it was 33 µM; in the experiment with A549 NSCLC, above 100 µM; in the experiment on HCT-116 colon, above 100 µM; in the experiment with M14 melanoma, above 100 µM; in the experiment with MDA-MB-231 breast, above 51.6 µM. In addition, the GI50 in the experiment with OVCAR-3 ovarian was above 70.6 µM; in the experiment on SN12C renal, above 100 µM; in the experiment on T-47D breast it was above 90.3 µM; in the experiment with UO-31 renal, 99 µM. The TGI in the experiment with 786-0 renal, in the experiment with A498 renal, in the experiment with A549 NSCLC, in the experiment on HCT-116 colon, in the experiment with M14 melanoma and with MDA-MB-231 breast was above 100 µM throughout. Besides, the TGI with OVCAR-3 ovarian, in the experiment on SN12C renal, in the experiment on T-47D breast and in the experiment on UO-31 renal was above 100 µM in each case.

In the case of `COc1cc2c(/C=C3/C(=O)Nc4ccccc43)c(Cl)n(Cc3ccccc3[N+](=O)[O-])c2cc1C`, the GI50 in the experiment with 786-0 renal is 6.31 µM; in the experiment with A498 renal, 12.4 µM; in the experiment on A549 NSCLC it was 7.8 µM; with HCT-116 colon, 2.71 µM; in the experiment with M14 melanoma it was 6.35 µM; in the experiment with MDA-MB-231 breast, 3.85 µM. Further, the GI50 is 3.02 µM in the experiment with OVCAR-3 ovarian, 9.42 µM with SN12C renal, 4.11 µM in the experiment with T-47D breast and 6.29 µM in the experiment on UO-31 renal. Besides, the TGI in the experiment with 786-0 renal is 22.5 µM; in the experiment with A498 renal, 32.6 µM; in the experiment with A549 NSCLC, above 100 µM; in the experiment on HCT-116 colon, 18.6 µM; in the experiment with M14 melanoma, 30.2 µM; in the experiment on MDA-MB-231 breast, 31.3 µM. The TGI in the experiment with OVCAR-3 ovarian came out at 15 µM; with SN12C renal it was 56.1 µM; with T-47D breast, 21.8 µM; in the experiment on UO-31 renal, 25.1 µM.

Turning to `CC(=O)OC(C)(C)/C=C/C(=O)[C@](C)(O)[C@H]1[C@H](O)C[C@@]2(C)[C@@H]3CC=C4[C@@H](C[C@H](O)C(=O)C4(C)C)[C@]3(C)C(=O)C[C@]12C`, the TGI in the experiment with 786-0 renal was 14.8 µM; in the experiment on A498 renal, below 0.01 µM; in the experiment with A549 NSCLC, 11.4 µM; in the experiment with HCT-116 colon it was 1.22 µM; in the experiment on M14 melanoma it was below 0.01 µM; in the experiment with MDA-MB-231 breast, below 0.01 µM. Besides, the TGI in the experiment with OVCAR-3 ovarian is 0.17 µM; with SN12C renal, 2.99 µM; with T-47D breast it was 0.543 µM; with UO-31 renal, below 0.0167 µM.

Turning to `CCN(CC)CCOc1ccc(/C=C2\CC3C4CC=C5C[C@@H](N6CCCC6)CC[C@]5(C)C4CC[C@]3(C)[C@H]2O)cc1OC` (some centres undefined), the GI50 was 2.64 µM in the experiment with 786-0 renal; 0.0502 µM with A498 renal; 7.91 µM in the experiment with A549 NSCLC; 1.38 µM in the experiment on HCT-116 colon; 1.92 µM with M14 melanoma; 2.96 µM with MDA-MB-231 breast. The GI50 with OVCAR-3 ovarian is 5.06 µM; in the experiment on SN12C renal, 20.6 µM; in the experiment on T-47D breast, 7.75 µM; in the experiment with UO-31 renal it was 4.29 µM. Also, the TGI was 10.1 µM in the experiment on 786-0 renal; 1.46 µM with A498 renal; above 100 µM with A549 NSCLC; 11 µM in the experiment with HCT-116 colon; 4.23 µM with M14 melanoma; 7.58 µM in the experiment with MDA-MB-231 breast. Moreover, the TGI is 13.6 µM with OVCAR-3 ovarian, above 63.5 µM in the experiment on SN12C renal, 22.6 µM in the experiment with T-47D breast and 16.9 µM with UO-31 renal.
